Data from patent US9360486B2, “Allergen fragments” (Biomay AG, priority 2007, dated 2016).

Tested on: Amb a 1-specific T cell lines (TCL)
Test: T cell epitope mapping of Amb a 1.3: proliferation (3H-thymidine uptake) of TCL stimulated with synthetic peptides
Format: cell-based, human
Details: for No. positive patients SI > 3 / No. positive patients SI > 5 / % (positive patients SI > 3) / % (positive patients SI > 5): TCL from 48 ragweed pollen-allergic patients, peptide 5 μg/ml; for No. positive patients SI > 3 / No. positive patients SI > 5: 3H-thymidine uptake after 48 hrs; for No. positive patients SI > 3 / % (positive patients SI > 3): stimulation index > 3; for No. positive patients SI > 5 / % (positive patients SI > 5): stimulation index > 5; for T cell activating region recognized by % of patients: classes of prevalence referring to SI>5, 48 TCL
Text: The T cell response to Amb a 1 was characterized in detail using the established in vitro culture system (Jahn-Schmid et al., J. Immunol. 169: 6005-11, 2002; Jahn-Schmid et al., J. Allergy Clin. Immunol., 115: 399-404, 2005). In total, 85 clinically well-defined patients (75 from Vienna/10 from Milano) with typical case history, positive skin prick test and CAP/RAST tests for ragweed extract were included.
Peripheral blood mononuclear cells (PBMC) were isolated from heparinized blood of allergic patients by Ficoll density gradient centrifugation. To generate allergen-specific T cell lines (TCL) and T cell clones (TCC), 1.5×10^6 PBMC were stimulated with optimal doses of ragweed or mugwort extract (4 μg/ml) or rAmb a 1.3 (10 μg/ml) in 24-well flat-bottomed culture plates (Costar, USA). After 5 days human rIL-2 (10 U/ml, Boehringer, Mannheim, Germany) were added and cultures were continued for additional 7 days. Then, T cell blasts were isolated by density centrifugation. The majority of T cell blasts was further expanded with IL-2 and irradiated PBMC. A small number of T cell blasts were used to establish monoclonal T cell cultures by limiting dilution: 0.3 T cells/well were seeded into 96 well round bottom plates (Nunclone) in the presence of 2×10^5 irradiated (60 Gy) PBMC, 0.25% v/v PHA (Gibco, USA) and rIL-2 (4 U/well) in the medium mentioned above. After 14-21 days, growing microcultures were expanded at weekly intervals with irradiated PBMC and rIL-2. The specificity of TCC was assessed in proliferation assays using irradiated allogeneic or HLA-matched PBMC or irradiated EBV-transformed allogeneic B-cells and 5 μg/ml Amb a 1.3. After 48 hours, cellular uptake of tritiated (^3H)-thymidine was performed to measure proliferation in counts per minute (cpm). When the stimulation index (SI; ratio between cpm obtained in cultures containing TCC plus autologous APC plus antigen, and cpm obtained in cultures containing TCC and APC alone) was >10, responses were considered as positive. Allergen-specific TCC were expanded by alternating turns of stimulation with autologous irradiated APC and allergen or with allogeneic feeder cells and rIL-2.
Amb a 1-specific TCL and TCC were used to identify T cell epitopes of Amb a 1.3. T cell cultures were stimulated with a panel of 121 synthetic 12-mer peptides and one 13-mer representing the C-terminal peptide of Amb a 1.3 (Pepset, Biotrend, Germany). Peptides had been synthesized according to the Amb a 1.3 amino acid sequence and overlapped for 9 amino acid residues with the neighbouring peptides (Table 1). Peptides were used at a concentration of 5 μg/ml for stimulation and proliferation of T cell cultures was determined after 48 hrs by ^3H-thymidine-uptake. Because of the frequently observed high background caused by auto-reactivity in TCL, the mean of the cpm observed with the ten least stimulating peptides (none of the peptides was toxic) was used as negative control in calculations of SI. Throughout this manuscript, a peptide comprised one T cell epitope when the stimulation index was at least 3.0.
T cell epitope mapping of Amb a 1.3 was performed evaluating 48 TCL from different patients ([…]), which had been initiated with ragweed extract (containing the natural allergen) or rAmb a 1.3 (Table 2). TCL induced with either ragweed extract or rAmb a 1.3 from the same individual recognized similar T cell epitopes (Table 2; FIG. 7). […] Therefore, their data were combined for further analysis (Table 3). Typical for many inhalant allergens, multiple T cell activating regions were detected in Amb a 1.3. The number of peptides recognized by T cells from a single individual ranged from 2 to maximum 60 peptides with a mean of 17.8 peptides (median=16/for SI>3; resp. 0-36/11.9/12 for SI>5) (see Table 3). In total, 26 relevant (i.e. recognized by ≧10% of patients studied) T cell activating regions comprising 12-18 aa were identified. […]

| Sequence | reactivity with T cells isolated from allergic individuals | No. positive patients SI > 3 | No. positive patients SI > 5 | % (positive patients SI > 3) | % (positive patients SI > 5) | T cell activating region recognized by % of patients |
| --- | --- | --- | --- | --- | --- | --- |
| IIHNINIHDVKV (Amb a 1 fragment) [Peptide 47] | reactivity with T cells | 14 | 10 | 29.2% | 20.8% | – |
| ILLGADDTHVQD (Amb a 1 fragment) [Peptide 74] | – | 3 | 1 | 6.3% | 2.1% | – |
| ISNCKFTQQSKA (Amb a 1 fragment) [Peptide 70] | – | 1 | 1 | 2.1% | 2.1% | – |
| KADWENNRQALA (Amb a 1 fragment) [Peptide 12] | reactivity with T cells | 5 | 1 | 10.4% | 2.1% | – |
| KGMLATVAFNMF (Amb a 1 fragment) [Peptide 78] | reactivity with T cells | 11 | 6 | 22.9% | 12.5% | recognized by 12.5% |
| KNDMVINLNQEL (Amb a 1 fragment) [Peptide 33] | reactivity with T cells | 15 | 13 | 31.3% | 27.1% | – |
| KNDMVINLNQELVVN (Amb a 1 fragment) [Peptide 33-34] | reactivity with T cells | – | – | – | – | recognized by 27.1% |
| KNIIIHNINIHD (Amb a 1 fragment) [Peptide 46] | reactivity with T cells | 10 | 8 | 20.8% | 16.7% | – |
| KNIIIHNINIHDVKVLPG (Amb a 1 fragment) [Peptide 46-48] | reactivity with T cells | – | – | – | – | recognized by 20.8% |
| KNVLARTGTGAA (Amb a 1 fragment) [Peptide 100] | reactivity with T cells | 6 | 5 | 12.5% | 10.4% | recognized by 10.4% |
| KSNDGPPILRQA (Amb a 1 fragment) [Peptide 53] | reactivity with T cells | 5 | 0 | 10.4% | 0.0% | – |
| LARTGTGAAESM (Amb a 1 fragment) [Peptide 101] | reactivity with T cells | 10 | 7 | 20.8% | 14.6% | – |
| LARTGTGAAESMAWN (Amb a 1 fragment) [101/102] | reactivity with T cells | – | – | – | – | recognized by 14.6% |
| LATVAFNMFTDN (Amb a 1 fragment) [Peptide 79] | reactivity with T cells | 5 | 2 | 10.4% | 4.2% | – |
| LCQGNRFLAPDD (Amb a 1 fragment) [Peptide 95] | – | 0 | 0 | 0.0% | 0.0% | – |
| LDDDVANPKEGT (Amb a 1 fragment) [Peptide 24] | – | 2 | 1 | 4.2% | 2.1% | – |
| LLENGAIFVTSG (Amb a 1 fragment) [Peptide 108] | reactivity with T cells | 27 | 24 | 56.3% | 50.0% | – |
| LPGGMIKSNDGP (Amb a 1 fragment) [Peptide 51] | reactivity with T cells | 6 | 3 | 12.5% | 6.3% | – |
| LRFAAAQNRPLW (Amb a 1 fragment) [Peptide 28] | reactivity with T cells | 15 | 11 | 31.3% | 22.9% | – |
| LTLMNVKNIIIH (Amb a 1 fragment) [Peptide 44] | reactivity with T cells | 15 | 9 | 31.3% | 18.8% | recognized by 18.8% |
| LTSSAGVLSCRP (Amb a 1 fragment) [Peptide 120] | reactivity with T cells | 14 | 9 | 29.2% | 18.8% | – |
| LVDVTLGSTHVT (Amb a 1 fragment) [Peptide 66] | – | 4 | 4 | 8.3% | 8.3% | – |
| MIPAEPGEAAIK (Amb a 1 fragment) [Peptide 116] | – | 6 | 4 | 12.5% | 8.3% | – |
| MNVKNIIIHNIN (Amb a 1 fragment) [Peptide 45] | – | 2 | 0 | 4.2% | 0.0% | – |
| MVINLNQELVVN (Amb a 1 fragment) [Peptide 34] | – | 2 | 2 | 4.2% | 4.2% | – |
| NETRSLQACEAY (Amb a 1 fragment) [Peptide 5] | – | 4 | 0 | 8.3% | 0.0% | – |
| NGAIFVTSGSDP (Amb a 1 fragment) [Peptide 109] | reactivity with T cells | 12 | 9 | 25.0% | 18.8% | – |
| NGAIFVTSGSDPVLTPVQ (Amb a 1 fragment) [Peptide 109-111] | reactivity with T cells | – | – | – | – | recognized by 22.9% |
| NGGLTLMNVKNI (Amb a 1 fragment) [Peptide 43] | – | 4 | 1 | 8.3% | 2.1% | – |
